Patent US20260217701A1, “SELECTIVE BET INHIBITORS AND USES THEREOF” (Tay Therapeutics Limited, priority 2022, published 2026)
“Also recorded” adds a separate entry of the source. Like-named read-outs stand apart in the source and are kept apart here.

Columns and labels:
[1] = system: collagen-induced arthritis; conditions: for average overall clinical score at plateau: around day 18-19
Procedure: (§1) The emulsion was cooled in an ice water bath during the formulation. The final concentration of collagen was 1 mg/mL. The emulsion is prepared fresh immediately prior to injection.
as §1
Experimental groups for the study are outlined in Table 5A. […] Animals in group one received no immunization.
IHC markers for staining were selected after evaluating clinical and histopathological scores for animals. After the skin was removed, the right hind limb was snap frozen in liquid nitrogen and RNA and protein analysis was performed.
Blood samples were collected from animals in groups 1-7 via cardiac puncture following euthanasia on Day 21. […] Serum was divided into two separate tubes and stored at −75±15° C. One tube was used to analyze IgG1, and the other tube was reserved for additional analyses.
H&E-stained slides of designated tissues from animals were transferred to an independent pathologist for microscopic evaluation (SPFBio). Samples were assigned the histologic grades based on the severity of change from tissue where CIA was not induced. Histology grades assigned were as follows: grade 1 (minimal change), grade 2 (mild change), grade 3 (moderate change), grade 4 (marked change), and grade 5 (severe change). A grade may be assigned for each indicator of disease severity: inflammation, mixed cell; granulation tissue; increased bone, periosteum; increased eroded surface, bone and erosion/ulcer, cartilaginous. […] Moderate inflammation was also associated with increased edema fluid, fibrin, and cellular debris. Marked mixed cell inflammation was characterized by dense, widespread accumulations of neutrophils and macrophages with lesser number of lymphocytes within one or more joint spaces, synovium and periarticular soft tissues. Marked inflammation was also associated with abundant edema fluid, fibrin, and cellular debris.
Marked granulation tissue (pannus) was associated with inflammation and was characterized by widespread fibrovascular connective tissue that expanded/replaced the periarticular soft tissues of one or more joints, extended into/expanded joint spaces, was contiguous with areas of erosion/ulcer in articular cartilage and/or increased eroded surface of bone, and variably extended along the diaphysis.
Marked increased periosteal bone (periosteal bone formation) was characterized by extensive areas of increased bone matrix and numerous prominent osteoblasts lining trabecular surfaces along the metaphysis and/or diaphysis of one or more bones.

[2] = system: collagen-induced arthritis; experiment: CIA model: histopathologic analysis of hind limbs; format: in vivo, Lewis rats; conditions: for Erosion/Ulcer, cartilaginous, Marked (number of animals) / Erosion/Ulcer, cartilaginous, Mild (number of animals) / Erosion/Ulcer, cartilaginous, Minimal (number of animals) / Erosion/Ulcer, cartilaginous, Moderate (number of animals) / Granulation tissue, Marked (number of animals) / Granulation tissue, Mild (number of animals) / Granulation tissue, Minimal (number of animals) / Granulation tissue, Moderate (number of animals) / Increased bone, periosteum, Marked (number of animals) / Increased bone, periosteum, Mild (number of animals) / Increased bone, periosteum, Minimal (number of animals) / Increased bone, periosteum, Moderate (number of animals) / Increased eroded surface, bone, Marked (number of animals) / Increased eroded surface, bone, Mild (number of animals) / Increased eroded surface, bone, Minimal (number of animals) / Increased eroded surface, bone, Moderate (number of animals) / Mixed cell inflammation, Marked (number of animals) / Mixed cell inflammation, Mild (number of animals) / Mixed cell inflammation, Minimal (number of animals) / Mixed cell inflammation, Moderate (number of animals) / No Visible Lesions (number of animals): hind limbs, CIA induced, 8 animals examined
Text: Mean histopathologic scores for tissue samples from animals in Groups 1-6 are depicted in FIG. 22A, and day 21 histology scores for all animals are illustrated in FIG. 22B.

[3] = Group 5 (CIA + Compound A 1 mg/kg), 1 mg/kg
[4] = Group 6 (CIA + Compound A 3 mg/kg)
[5] = Group 7 (CIA + Compound A 10 mg/kg), two out of eight samples

## Cn1cc(-c2ccccc2)c(-c2cn(C)c(=O)c3[nH]c(-c4cnn(C(F)(F)F)c4)cc23)cc1=O [Compound A, 6-methyl-4-(1-methyl-2-oxo-5-phenyl-1,2-dihydropyridin-4-yl)-2-(1-(trifluoromethyl)-1H-pyrazol-4-yl)-1,6-dihydro-7H-pyrrolo[2,3-c]pyridin-7-one]
[1]; 1 mg/kg (group 5), around day 18
  plateau increase in paw volume relative to day 0: approximately 50%
[1]; 1 mg/kg (group 5), day 14
  animals exhibiting disease: 5/8
[1]; 1 mg/kg (group 5), day 18
  animals exhibiting disease: 7/8
[1]; 1 mg/kg and 3 mg/kg vs GSK620 10 mg/kg
  percent inhibition in clinical score relative to GSK620: nearly twice as high
[1]; 1 mg/kg or 3 mg/kg vs GSK620 10 mg/kg
  percent inhibition of increase in paw volume relative to GSK620: more than twice
[1]; 3 mg/kg
  plateau increase in paw volume relative to day 0: approximately 40%
[1]; 3 mg/kg (group 6), day 15
  animals exhibiting disease: 4/8
[1]; 3 mg/kg (group 6), day 18
  animals exhibiting disease: all animals
[1]; 10 mg/kg (group 7), day 15
  animals exhibiting disease: 4/8
[1]; 10 mg/kg (group 7), day 18
  animals exhibiting disease: 7/8
[1]; 10 mg/kg PO QD, Day 21
  decrease in paw volume relative to CIA+Vehicle: ~79%
  reduction in clinical score compared to vehicle-treated animals: ~71%
[1]; 10 mg/kg, day 21, serum
  rat anti-collagen IgG1 antibodies, lower than vehicle treated animals: > 98%
[1]; 10 mg/kg, Group 7
  plateau increase in paw volume relative to day 0: approximately 35%
[1]; 1, 3 and 10 mg/kg, day 21, p<0.01
  rat anti-collagen IgG1 antibodies relative to untreated CIA animals: significantly decreased
[1]; group 5 (1 mg/kg)
  average overall clinical score at plateau: 5
[1]; group 6 (3 mg/kg)
  average overall clinical score at plateau: 4
[1]; group 7 (10 mg/kg)
  average overall clinical score at plateau: 4
[2]; 1 mg/kg, Group 5
  Samples with no pathologic observations: One out of eight
[2]; 3 mg/kg, Group 6
  Samples with no pathologic observations: Two out of eight
[2]; 10 mg/kg, Group 7
  Samples with no pathologic observations: Six out of eight
[2]; 10 mg/kg, day 21
  Animals exhibiting normal limb/joint pathology: 6/8
[2]; [3]
  Erosion/ulcer in articular cartilage, grade: mild and mild to moderate
  Granulation tissue (pannus), grade: mild and mild to moderate
  Increased eroded surface of bone (bone resorption), grade: mild and mild to moderate
  Increased periosteal bone (periosteal bone formation), grade: mild and mild to moderate
  Mixed cell inflammation, grade: moderate to marked
[2]; [4]
  Erosion/ulcer in articular cartilage, grade: mild
  Increased eroded surface of bone (bone resorption), grade: mild
  Increased periosteal bone (periosteal bone formation), grade: mild
  Mixed cell inflammation, grade: moderate
[2]; Group 6 (CIA + Compound A 3 mg/kg), 3 mg/kg
  Granulation tissue (pannus), grade: mild and mild to moderate
[2]; Group 7 (CIA + Compound A 10 mg/kg), FIG. 23G, 23I, 10 mg/kg
  Histopathological observations, representative sample/image: no histopathological observations noted; also recorded: normal joint pathology
[2]; [5]
  Erosion in the articular cartilage, grade: mild
  Granulation tissue (pannus), grade: mild
  Increased periosteal bone (periosteal bone formation), grade: minimal
  Mixed cell inflammation, grade: mild to moderate
[2]; Groups 5-7 (Compound A 1, 3, 10 mg/kg)
  Pathologic observations relative to CIA-induced group (Group 2): all decreased in severity, extent, and distribution
[2]; all tested doses (1, 3, 10 mg/kg)
  Severity of arthritic histopathology versus vehicle- and GSK620-treated animals: dose-dependent reduction in the severity of arthritic histopathology; also recorded: significant dose-dependent decrease in the incidence and severity of collagen-induced arthritis
[2]; 1 mg/kg
  Erosion/Ulcer, cartilaginous, Marked (number of animals): 0
  Erosion/Ulcer, cartilaginous, Mild (number of animals): 6
  Erosion/Ulcer, cartilaginous, Minimal (number of animals): 0
  Erosion/Ulcer, cartilaginous, Moderate (number of animals): 1
  Granulation tissue, Marked (number of animals): 0
  Granulation tissue, Mild (number of animals): 3
  Granulation tissue, Minimal (number of animals): 0
  Granulation tissue, Moderate (number of animals): 3
  Increased bone, periosteum, Marked (number of animals): 0
  Increased bone, periosteum, Mild (number of animals): 4
  Increased bone, periosteum, Minimal (number of animals): 1
  Increased bone, periosteum, Moderate (number of animals): 0
  Increased eroded surface, bone, Marked (number of animals): 0
  Increased eroded surface, bone, Mild (number of animals): 3
  Increased eroded surface, bone, Minimal (number of animals): 0
  Increased eroded surface, bone, Moderate (number of animals): 2
  Mixed cell inflammation, Marked (number of animals): 0
  Mixed cell inflammation, Mild (number of animals): 2
  Mixed cell inflammation, Minimal (number of animals): 1
  Mixed cell inflammation, Moderate (number of animals): 4
  No Visible Lesions (number of animals): 1
[2]; 3 mg/kg
  Erosion/Ulcer, cartilaginous, Marked (number of animals): 0
  Erosion/Ulcer, cartilaginous, Mild (number of animals): 3
  Erosion/Ulcer, cartilaginous, Minimal (number of animals): 3
  Erosion/Ulcer, cartilaginous, Moderate (number of animals): 0
  Granulation tissue, Marked (number of animals): 0
  Granulation tissue, Mild (number of animals): 4
  Granulation tissue, Minimal (number of animals): 0
  Granulation tissue, Moderate (number of animals): 2
  Increased bone, periosteum, Marked (number of animals): 0
  Increased bone, periosteum, Mild (number of animals): 4
  Increased bone, periosteum, Minimal (number of animals): 2
  Increased bone, periosteum, Moderate (number of animals): 0
  Increased eroded surface, bone, Marked (number of animals): 0
  Increased eroded surface, bone, Mild (number of animals): 3
  Increased eroded surface, bone, Minimal (number of animals): 2
  Increased eroded surface, bone, Moderate (number of animals): 0
  Mixed cell inflammation, Marked (number of animals): 0
  Mixed cell inflammation, Mild (number of animals): 2
  Mixed cell inflammation, Minimal (number of animals): 0
  Mixed cell inflammation, Moderate (number of animals): 4
  No Visible Lesions (number of animals): 2
[2]; 10 mg/kg
  Erosion/Ulcer, cartilaginous, Marked (number of animals): 0
  Erosion/Ulcer, cartilaginous, Mild (number of animals): 1
  Erosion/Ulcer, cartilaginous, Minimal (number of animals): 1
  Erosion/Ulcer, cartilaginous, Moderate (number of animals): 0
  Granulation tissue, Marked (number of animals): 0
  Granulation tissue, Mild (number of animals): 1
  Granulation tissue, Minimal (number of animals): 0
  Granulation tissue, Moderate (number of animals): 0
  Increased bone, periosteum, Marked (number of animals): 0
  Increased bone, periosteum, Mild (number of animals): 0
  Increased bone, periosteum, Minimal (number of animals): 0
  Increased bone, periosteum, Moderate (number of animals): 0
  Increased eroded surface, bone, Marked (number of animals): 0
  Increased eroded surface, bone, Mild (number of animals): 0
  Increased eroded surface, bone, Minimal (number of animals): 1
  Increased eroded surface, bone, Moderate (number of animals): 0
  Mixed cell inflammation, Marked (number of animals): 0
  Mixed cell inflammation, Mild (number of animals): 1
  Mixed cell inflammation, Minimal (number of animals): 0
  Mixed cell inflammation, Moderate (number of animals): 1
  No Visible Lesions (number of animals): 6
